In US20240059698A1 (Accutar Biotechnology Inc., priority 2022, published 2024):
Like-named read-outs stand apart in the source and are kept apart here.

Experiments:
Assay type in all cases: cell-based
[1] = tested on: HCC827-SVD cells (human EGFR exon 20 insertion mutant D770_N771insSVD); assay: Cell growth inhibition (CellTiter-Glo), HCC827-SVD; details: 72 h, 3 days
Procedure, shortened: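 Growth read by CellTiter-Glo luminescence after 3-day compound exposure at 37 °C. Engineered clonal HCC827 line (native EGFR deleted by CRISPR, mutant EGFR re-expressed) plated at 5000 cells/well in 10% FBS RPMI the night before dosing.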

[2] = tested on: HCC827-YVMA cells (human ERBB2 exon20 insertion mutant A775_G776ins YVMA); assay: Cell growth inhibition (CellTiter-Glo), HCC827-YVMA; details: 72 h, read-out: Cell growth inhibition, GI50 (nM) HCC827-YVMA
Procedure, shortened: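 Growth in RPMI with 10% FBS was measured by CellTiter-Glo luminescence after 3 days at 37 °C with test compounds across a concentration range. The single-clone HCC827 lines carry a lentiviral YVMA (ERBB2) or ASV (EGFR) exon 20 insertion, with endogenous EGFR removed via sgRNA/Cas9.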

HCC827 cells = assay: Cell growth inhibition (CellTiter-Glo), HCC827; details: Homo sapiens, 72 h, 3 days
Procedure, shortened: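 Readout was CellTiter-Glo luminescence after 3-day compound treatment at 37° C. Cells were seeded at 5000/well the previous night: HCC827 in RPMI/10% FBS, A431 in DMEM/10% FBS.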

A431 cells = assay: Cell growth inhibition (CellTiter-Glo), A431; details: Homo sapiens, A-431, 72 h, 3 days
Method: 2. Cell Growth Inhibition for HCC827, HCC827-SVD, HCC827-ASV, HCC827-YVMA, and A431.
HCC827(ATCC), HCC827-SVD, HCC827-ASV, and HCC827-YVMA cells were seeded in 96-well plates at 5000 cells/well in 90 μL of RPMI growth medium containing 10% FBS and 1% Penicillin Streptomycin. A431 (ATCC) cells were seeded in 96-well plates at 5000 cells/well in 90 μL of DMEM growth medium containing 10% FBS and 1% Penicillin Streptomycin. Cells were incubated at 37° C. overnight and then administered with 10 μL 10× test compounds prepared in the growth medium at various concentrations. After administration of the compounds, cells were incubated at 37° C. for 3 days. Before the CellTiter-Glo assay, the plates were equilibrated at room temperature for approximately 30 minutes. 100 ul of CellTiter-Glo reagent (Promega) was added to each well. The plates were then incubated at room temperature for 10 minutes and luminescence was recorded by the EnSight® multimode plate reader (PerkinElmer). Table 7 listed selected compounds in cellular growth assay.

[3] = HCC827-YVMA cells, 3 days, CellTiter-Glo

For `C=CC(=O)N1CCC(c2c[nH]c3ncnc(Nc4ccc(Oc5ccnc(N6C[C@H](OC)[C@H](OC)C6)c5)cc4F)c23)CC1` [Compound 139, 1-(4-(4-((4-((2-((3R,4S)-3,4-dimethoxypyrrolidin-1-yl)pyridin-4-yl)oxy)-2-fluorophenyl)amino)-7H-pyrrolo[2,3-d]pyrimidin-5-yl)piperidin-1-yl)prop-2-en-1-one], the GI50 [1] was 50 to 200 nM, the GI50 [2, 3] was over 1000 nM and the GI50 (HCC827 cells) was over 1000 nM. It also gave a GI50 (A431 cells) of over 1000 nM.

`C=CC(=O)N1CCC(c2c[nH]c3ncnc(Nc4ccc(Oc5ccnc(N6CCC(C(F)(F)F)C6)c5)cc4F)c23)CC1` (stereo not shown) [Compound 140, 1-(4-(4-((2-fluoro-4-((2-(3-(trifluoromethyl)pyrrolidin-1-yl)pyridin-4-yl)oxy)phenyl)amino)-7H-pyrrolo[2,3-d]pyrimidin-5-yl)piperidin-1-yl)prop-2-en-1-one] showed a GI50 [1] of 50 to 200 nM, a GI50 [2, 3] of 50 to 200 nM and a GI50 (HCC827 cells) of 200 to 1000 nM. For the same compound, the GI50 (A431 cells) was over 1000 nM.

In the case of `C=CC(=O)N1CCC(c2c[nH]c3ncnc(Nc4ccc(Oc5ccnc(N6C[C@@H](C)O[C@@H](C)C6)c5)c(Cl)c4F)c23)CC1` [Compound 142, 1-(4-(4-((3-chloro-4-((2-((2S,6R)-2,6-dimethylmorpholino)pyridin-4-yl)oxy)-2-fluorophenyl)amino)-7H-pyrrolo[2,3-d]pyrimidin-5-yl)piperidin-1-yl)prop-2-en-1-one], the GI50 [1] is reported as under 50 nM, the GI50 [2, 3] is reported as under 50 nM and the GI50 (HCC827 cells) is reported as over 1000 nM. The GI50 (A431 cells) was over 1000 nM.

Work on `C=CC(=O)N1CCC(c2c[nH]c3ncnc(Nc4ccc(Cl)c(Cl)c4F)c23)CC1` [Compound 143, 1-(4-(4-((3,4-dichloro-2-fluorophenyl)amino)-7H-pyrrolo[2,3-d]pyrimidin-5-yl)piperidin-1-yl)prop-2-en-1-one] yielded a GI50 [1] of under 50 nM, a GI50 [2, 3] of under 50 nM and a GI50 (HCC827 cells) of under 50 nM. The GI50 (A431 cells) was over 1000 nM.

With `C=CC(=O)N1CCC(c2c[nH]c3ncnc(Nc4ccc(Oc5ccnc(N6CCC(F)(F)C6)c5)cc4F)c23)CC1` [Compound 145] the GI50 [1] was 200 to 1000 nM, the GI50 [2, 3] was 200 to 1000 nM and the GI50 (HCC827 cells) was over 1000 nM. It also gave a GI50 (A431 cells) of over 1000 nM.

With `C=CC(=O)N1CCC(c2c[nH]c3ncnc(Nc4ccc(Oc5ccnc(NC6CCOCC6)c5)cc4F)c23)CC1` [Compound 146, 1-(4-(4-((2-fluoro-4-((2-((tetrahydro-2H-pyran-4-yl)amino)pyridin-4-yl)oxy)phenyl)amino)-7H-pyrrolo[2,3-d]pyrimidin-5-yl)piperidin-1-yl)prop-2-en-1-one] the GI50 [1] was 200 to 1000 nM, the GI50 [2, 3] was 200 to 1000 nM and the GI50 (HCC827 cells) was over 1000 nM. It also gave a GI50 (A431 cells) of over 1000 nM.

For `C=CC(=O)N1CCC(c2c[nH]c3ncnc(Nc4ccc(Oc5ccnc(N6CCC[C@@H](OC)C6)c5)cc4F)c23)CC1` [Compound 147, (R)-1-(4-(4-((2-fluoro-4-((2-(3-methoxypiperidin-1-yl)pyridin-4-yl)oxy)phenyl)amino)-7H-pyrrolo[2,3-d]pyrimidin-5-yl)piperidin-1-yl)prop-2-en-1-one], the GI50 [1] was 50 to 200 nM, the GI50 [2, 3] was 50 to 200 nM and the GI50 (HCC827 cells) was over 1000 nM. The GI50 (A431 cells) was over 1000 nM.

Work on `C=CC(=O)N1CCC(c2c[nH]c3ncnc(Nc4ccc(Oc5ccnc(N6CC7C(C6)C7(F)F)c5)cc4F)c23)CC1` (stereo not shown) [Compound 148, 1-(4-(4-((4-((2-(6,6-difluoro-3-azabicyclo[3.1.0]hexan-3-yl)pyridin-4-yl)oxy)-2-fluorophenyl)amino)-7H-pyrrolo[2,3-d]pyrimidin-5-yl)piperidin-1-yl)prop-2-en-1-one] yielded a GI50 [1] of 50 to 200 nM, a GI50 [2, 3] of 200 to 1000 nM and a GI50 (HCC827 cells) of over 1000 nM. The GI50 (A431 cells) was over 1000 nM.

With `C=CC(=O)N1CCC(c2c[nH]c3ncnc(Nc4ccc(Oc5nc(-c6cnc(OC)nc6)cs5)cc4F)c23)CC1` [Compound 149, 1-(4-(4-((2-fluoro-4-((4-(2-methoxypyrimidin-5-yl)thiazol-2-yl)oxy)phenyl)amino)-7H-pyrrolo[2,3-d]pyrimidin-5-yl)piperidin-1-yl)prop-2-en-1-one] the GI50 [1] was 50 to 200 nM, the GI50 [2, 3] was 50 to 200 nM and the GI50 (HCC827 cells) was over 1000 nM. For the same compound, the GI50 (A431 cells) was over 1000 nM.

With `C=CC(=O)N1CCC(c2c[nH]c3ncnc(Nc4ccc(Oc5ccn(-c6cnc(C)c(F)c6)n5)cc4F)c23)CC1` [Compound 150, 1-(4-(4-((2-fluoro-4-((1-(5-fluoro-6-methylpyridin-3-yl)-1H-pyrazol-3-yl)oxy)phenyl)amino)-7H-pyrrolo[2,3-d]pyrimidin-5-yl)piperidin-1-yl)prop-2-en-1-one] the GI50 [1] was 50 to 200 nM, the GI50 [2, 3] was 50 to 200 nM and the GI50 (HCC827 cells) was 200 to 1000 nM. For the same compound, the GI50 (A431 cells) was over 1000 nM.

`C=CC(=O)N1CCC(c2c[nH]c3ncnc(Nc4ccc(OCc5nccs5)c(Cl)c4)c23)CC1` [Compound 153, 1-(4-(4-((3-chloro-4-(thiazol-2-ylmethoxy)phenyl)amino)-7H-pyrrolo[2,3-d]pyrimidin-5-yl)piperidin-1-yl)prop-2-en-1-one] gave a GI50 [1] of under 50 nM, a GI50 [2, 3] of under 50 nM and a GI50 (HCC827 cells) of under 50 nM. It also gave a GI50 (A431 cells) of under 50 nM.

In the case of `C=CC(=O)N1CCN(c2n[nH]c3ncnc(Nc4ccc(OCc5ccccn5)c(Cl)c4)c23)CC1` [Compound 163, 1-(4-(4-((3-chloro-4-(pyridin-2-ylmethoxy)phenyl)amino)-1H-pyrazolo[3,4-d]pyrimidin-3-yl)piperazin-1-yl)prop-2-en-1-one], the GI50 [1] is reported as under 50 nM, the GI50 [2, 3] is reported as under 50 nM and the GI50 (HCC827 cells) is reported as under 50 nM. For the same compound, the GI50 (A431 cells) was over 1000 nM.

`C=CC(=O)N1CCC(c2n[nH]c3ncnc(Nc4ccc(O[C@H]5CCCN(S(=O)(=O)c6ccccc6)C5)cc4F)c23)CC1` [Compound 165, (S)-1-(4-(4-((2-fluoro-4-((1-(phenylsulfonyl)piperidin-3-yl)oxy)phenyl)amino)-1H-pyrazolo[3,4-d]pyrimidin-3-yl)piperidin-1-yl)prop-2-en-1-one] showed a GI50 [1] of 50 to 200 nM, a GI50 [2, 3] of 50 to 200 nM and a GI50 (HCC827 cells) of 200 to 1000 nM. It also gave a GI50 (A431 cells) of over 1000 nM.

`C=CC(=O)N1CC(Nc2n[nH]c3ncnc(Nc4ccc(OCc5ccccn5)c(Cl)c4)c23)C1` [Compound 168, 1-(3-((4-((3-chloro-4-(pyridin-2-ylmethoxy)phenyl)amino)-1H-pyrazolo[3,4-d]pyrimidin-3-yl)amino)azetidin-1-yl)prop-2-en-1-one] showed a GI50 [1] of over 1000 nM, a GI50 [2, 3] of over 1000 nM and a GI50 (HCC827 cells) of 200 to 1000 nM. The GI50 (A431 cells) was over 1000 nM.

Compound `C=CC(=O)N1CCC(Nc2n[nH]c3ncnc(Nc4ccc(OCc5ccccn5)c(Cl)c4)c23)CC1` [Compound 169, 1-(4-((4-((3-chloro-4-(pyridin-2-ylmethoxy)phenyl)amino)-1H-pyrazolo[3,4-d]pyrimidin-3-yl)amino)piperidin-1-yl)prop-2-en-1-one] has a GI50 [1] of over 1000 nM, a GI50 [2, 3] of over 1000 nM and a GI50 (HCC827 cells) of over 1000 nM. It also gave a GI50 (A431 cells) of over 1000 nM.

Compound `C=CC(=O)N1CCC(c2n[nH]c3ncnc(Nc4ccc(Oc5ccnc(-c6csc(C)n6)c5)cc4F)c23)CC1` [Compound 171, 1-(4-(4-((2-fluoro-4-((2-(2-methylthiazol-4-yl)pyridin-4-yl)oxy)phenyl)amino)-1H-pyrazolo[3,4-d]pyrimidin-3-yl)piperidin-1-yl)prop-2-en-1-one] has a GI50 [1] of 50 to 200 nM, a GI50 [2] of under 50 nM and a GI50 (HCC827 cells) of 200 to 1000 nM. The GI50 (A431 cells) was over 1000 nM.

With `C=CC(=O)N1CCC(c2n[nH]c3ncnc(Nc4ccc(Oc5ccnc(N6CCO[C@H](C)C6)c5)cc4F)c23)CC1` [Compound 172, (R)-1-(4-(4-((2-fluoro-4-((2-(2-methylmorpholino)pyridin-4-yl)oxy)phenyl)amino)-1H-pyrazolo[3,4-d]pyrimidin-3-yl)piperidin-1-yl)prop-2-en-1-one] the GI50 [1] was 50 to 200 nM, the GI50 [2, 3] was 50 to 200 nM and the GI50 (HCC827 cells) was 200 to 1000 nM. It also gave a GI50 (A431 cells) of over 1000 nM.

Compound `C=CC(=O)N1CCC(c2n[nH]c3ncnc(Nc4ccc(Oc5ccnc(NC6CCOCC6)c5)cc4F)c23)CC1` [Compound 174, 1-(4-(4-((2-fluoro-4-((2-((tetrahydro-2H-pyran-4-yl)amino)pyridin-4-yl)oxy)phenyl)amino)-1H-pyrazolo[3,4-d]pyrimidin-3-yl)piperidin-1-yl)prop-2-en-1-one] has a GI50 [1] of 200 to 1000 nM, a GI50 [2, 3] of 200 to 1000 nM and a GI50 (HCC827 cells) of over 1000 nM. For the same compound, the GI50 (A431 cells) was over 1000 nM.

`C=CC(=O)N1CCC(c2n[nH]c3ncnc(Nc4ccc(Oc5ccnc(N6C[C@H](OC)[C@H](OC)C6)c5)cc4F)c23)CC1` [Compound 176, 1-(4-(4-((4-((2-((3S,4R)-3,4-dimethoxypyrrolidin-1-yl)pyridin-4-yl)oxy)-2-fluorophenyl)amino)-1H-pyrazolo[3,4-d]pyrimidin-3-yl)piperidin-1-yl)prop-2-en-1-one] was tested, and the GI50 [1] was 200 to 1000 nM, the GI50 [2, 3] was 200 to 1000 nM and the GI50 (HCC827 cells) was over 1000 nM. It also gave a GI50 (A431 cells) of over 1000 nM.
